Literature values, collected in patent publication US6419959B1, “Galenic composition containing opioid antagonists” (Klinge Pharma GmbH, priority 1996, dated 2002).
Like-named read-outs stand apart in the source and are kept apart here.

Columns and labels:
[1] = system: patients with opioid-induced constipation; details: oral, maximally administered dose 12 mg
[2] = system: patients with opioid-induced constipation; details: oral
[3] = system: healthy probands
[4] = system: patients; details: oral
[5] = system: patients given morphine
[6] = metabolites of naloxone present in the blood

## C=CCN1CC[C@]23c4c5ccc(O)c4O[C@H]2C(=O)CC[C@@]3(O)[C@H]1C5 [naloxone]
[1]
  effect on the gastrointestinal motility: not determinable in any of the treated patients
[2]; doses of up to 16 mg, three patients
  response to the treatment (neutralisation of constipation): two of the three patients responded
[2]; increase in dose of up to 24 mg within 3 hours
  neutralisation of constipation in the other patient (non-responder): constipation could not be neutralized
[2]; plasma level determinations
  dose-dependent maximal naloxone plasma concentrations: up to 7.9 ng/ml
[3]; intravenously applied, 40 μg/kg/hr in 3 hr
  neutralisation of the constipating effect of loperamide: could neutralize the constipating effect of loperamide
[3]; oral administration of 16 or 32 mg
  neutralisation of the constipating effect of loperamide: could neutralize the constipating effect of loperamide
[4]; up to 10% naloxone dose with respect to the opioid dose
  effect on constipation: No effect was determinable
[4]; very high dose range 20% to 40% of the opioid dose
  effect on constipation: neutralization of constipation

## CN1CC[C@]23c4c5ccc(O)c4O[C@H]2[C@@H](O)C=C[C@H]3[C@H]1C5 [morphine]
[5]
  patients in whom constipation arises during treatment: approximately 85%

## C=CCN1CC[C@]23c4c5ccc(O[C@@H]6O[C@H](C(=O)O)[C@@H](O)[C@H](O)[C@H]6O)c4O[C@H]2[C@H](O)CC[C@@]3(O)[C@H]1C5 [β-naloxol-3-glucuronide]
[6]
  effectiveness of metabolite: not effective or only weakly effective

## C=CCN1CC[C@]23c4c5ccc(O)c4O[C@H]2[C@H](O)CC[C@@]3(O)[C@H]1C5 [β-naloxol]
[6]
  effectiveness of metabolite: not effective or only weakly effective

## C=CCN1CC[C@]23c4c5ccc(O[C@@H]6O[C@H](C(=O)O)[C@@H](O)[C@H](O)[C@H]6O)c4O[C@H]2C(=O)CC[C@@]3(O)[C@H]1C5 [naloxone-3-glucuronide]
[6]
  effectiveness of metabolite: not effective or only weakly effective
